“Also recorded” adds a separate entry of the source.
Key:
EP2 = EP2 (Homo sapiens, UniProt P43116); settings: cited from earlier work
S. aureus = test: cell membrane integrity by viability (Live/Dead) staining; assay type: cell-based, Staphylococcus aureus; settings: 6 h incubation
Excerpt: To determine the mechanism of action of L-161, 982 against growth of Gram-positive bacteria, we first looked at its effect on cell membrane integrity using viability staining. […] A previous study had reported that the inhibitory effect of L-161, 982 on the proliferation of skeletal muscle myoblasts was due to its ability to induce production of high levels of intracellular reactive oxygen species (ROS) that could be reversed by co-treatment with the antioxidants, N-acetyl cysteine or sodium ascorbate (25).
Although the prostanoid pathway is not conserved in prokaryotes, we questioned whether L-161, 982 inhibited S. aureus growth by increasing intracellular ROS production. […] Future studies will examine other possible mechanisms of action.

S. aureus NRS383 = test: mouse MRSA peritonitis/sepsis model; assay type: in vivo, mice; settings: for survival by day 2 post-inoculation: 10 mg/kg i.p.
Protocol: Mice were infected intraperitoneally with 0.2 ml of the indicated inoculum of S. aureus NRS383 in 3% hog gastric mucin/PBS. One group of mice/inoculum received either the vehicle or L-161, 982 at a dose of 10 mg/kg by i.p. injection as indicated in Materials and Methods. (A) Mortality was assessed using Kaplan Meier test (*P<0.05; **P<0.01; ***P<0.001; ns—not significant; n=15/group) compared to control groups. (B) Microbial burden in peritoneal lavage fluid and spleen was assessed between untreated (control) and treated (L-161, 982) groups 24 and 48 h post-inoculation (n=6 to 8/group). Values are plotted as the median CFU and compared using the Mann-Whitney U test (**P<0.01; ***P<0.001). Data shown are representative of three replicate experiments.
The mouse peritonitis/intra-abdominal model was performed as previously described (8). In brief, for MRSA peritonitis, mice were injected intraperitoneally (i.p.) with 4×10^6 CFU or 5×10^6 CFU or 2×10^7 CFU of S. aureus in 0.2 ml of PBS containing 3% hog gastric mucin type III (Sigma Aldrich). Mice injected i.p. with 0.2 ml of mucin/PBS served as a negative infection control. For the intra-abdominal infection with C. albicans and S. aureus, mice were injected i.p. with 7×10^6 CFU of C. albicans and 8×10^7 CFU of S. aureus (8.7×10^7 CFU total) in 0.2 ml of PBS. After inoculation, mice were observed over 10 days for signs of morbidity (hunched posture, inactivity, lethargy, and ruffled fur) and mortality. […] In the MRSA peritonitis experiments, mice were sacrificed at 24 or 48 h post-inoculation to assess microbial burden. Peritoneal cavities were lavaged by injection of 2 ml of sterile PBS followed by gentle massaging of the peritoneal cavity. Peritoneal lavage fluid then was removed using a pipette inserted into a small incision in the abdominal cavity. Spleens were removed, weighed, and mechanically homogenized prior to CFU analysis. Microbial burdens in the peritoneal lavage fluid and spleen were enumerated as described above.
Each inhibitor was prepared fresh as a concentrated stock (20-25 mg/ml) in DMSO and diluted to a working concentration of […] in sterile PBS (final DMSO concentration, 2.3%). A sham treatment containing only 2.3% DMSO in PBS was also prepared. For the MRSA peritonitis study, the EP4 receptor antagonist was administered 2 h after S. aureus inoculation and once daily thereafter until day 4 post inoculation. For the IAI co-infection study, COX inhibitor or vehicle control was administered 4 h prior to and 4 and 8 h after inoculation with C. albicans and S. aureus while the EP receptor antagonists were administered daily starting 1 day prior to and 5 days after infection. All other procedures were performed as described above. Control groups received the vehicle at the same dose interval.
L-161, 982 protects against mono- and poly-microbial infections with MRSA. We next evaluated the efficacy of L-161, 982 in vivo using an established mouse peritonitis/sepsis model of infection. Mice were inoculated with three varying lethal inocula of S. aureus and treated with L-161, 982 (10 mg/kg) intraperitoneally (i.p.) 2 h post-inoculation and once daily afterwards through day 4. Control group received the vehicle at the same dose interval.

EP1 = EP1 (Homo sapiens, UniProt P34995); settings: cited from earlier work
S. aureus strain NRS383 = test: effect of exogenous thymidine on antibacterial activity; assay type: cell-based, Staphylococcus aureus; settings: 50 μg/ml, 200 μg/ml thymidine
Protocol: S. aureus strain NRS383 was grown in cation-adjusted Mueller-Hinton II broth alone (control), with 50 μg/ml of L-161, 982 or with 40 μg/ml of SXT (positive control)±200 μg/ml of thymidine. Cultures were incubated at 37° C. non-shaking and aliquots were removed at various time points and cultured for growth (CFU). Results are expressed as % of control at each time point. Mean values from two independent experiments are shown.
Effect of exogenous thymidine on antibacterial activity of L-161, 982. S. aureus was cultured to mid-log phase in cation-adjusted Mueller-Hinton II broth with shaking at 37° C. Cultures were further diluted to yield a final concentration of 5×10^5 cells/ml. and treated with drugs alone or in combination with 200 μg/ml of thymidine (Sigma). Drugs were L-161, 982 (50 μg/ml) or 40 μg/ml of trimethoprim-sulfamethoxazole (SXT) at a ratio of 1:19 (2 μg/ml of trimethoprim and 38 μg/ml of sulfamethoxazole; Sigma) as a positive control. Cultures were incubated at 37° C. without shaking and aliquots were removed at t(0), 2, 4, 6, and 24 hours. CFUs were enumerated by plating various dilutions on TSA plates and incubating at 37° C. for 24 hours. Results were normalized to negative control cultures containing no drug at each time point.

[1] = 10 mg/kg body weight; cited from earlier work

Sequence of EP2 (P43116 whole entry): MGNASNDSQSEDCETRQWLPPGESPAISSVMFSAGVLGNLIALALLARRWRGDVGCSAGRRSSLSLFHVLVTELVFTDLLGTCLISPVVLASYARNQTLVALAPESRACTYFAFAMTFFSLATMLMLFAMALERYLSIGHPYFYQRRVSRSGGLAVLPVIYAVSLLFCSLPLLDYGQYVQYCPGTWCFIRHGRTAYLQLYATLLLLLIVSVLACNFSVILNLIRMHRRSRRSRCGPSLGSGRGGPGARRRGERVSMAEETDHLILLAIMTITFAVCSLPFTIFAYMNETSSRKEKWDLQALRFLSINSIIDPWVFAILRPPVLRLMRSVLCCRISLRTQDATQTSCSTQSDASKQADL
Sequence of EP1 (P34995 whole entry): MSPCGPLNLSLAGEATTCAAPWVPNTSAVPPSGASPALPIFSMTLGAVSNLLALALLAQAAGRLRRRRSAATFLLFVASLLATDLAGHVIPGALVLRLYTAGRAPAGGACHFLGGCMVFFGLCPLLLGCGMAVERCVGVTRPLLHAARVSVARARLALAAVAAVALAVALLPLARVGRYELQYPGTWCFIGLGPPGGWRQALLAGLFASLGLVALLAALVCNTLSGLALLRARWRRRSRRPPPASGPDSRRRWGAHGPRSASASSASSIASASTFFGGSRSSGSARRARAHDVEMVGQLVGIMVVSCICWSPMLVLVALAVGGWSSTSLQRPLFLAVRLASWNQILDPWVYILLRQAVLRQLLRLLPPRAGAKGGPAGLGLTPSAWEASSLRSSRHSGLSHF

CCCCc1nn(-c2ccccc2C(F)(F)F)c(=O)n1Cc1ccc(-c2ccccc2S(=O)(=O)NC(=O)c2sccc2C)cc1 [L-161, 982, N-[[4′-[[3-Butyl-1,5-dihydro-5-oxo-1-[2-(trifluoromethyl)phenyl]-4H-1,2,4-triazol-4-yl]methyl][1,1′-biphenyl]-2-yl]sulfonyl]-3-methyl-2-thiophenecarboxamide]
Ki (EP2): 23 µM
cell membrane damage (S. aureus): no evidence of cell membrane damaged
reduction of S. aureus in peritoneal cavity and spleen (S. aureus NRS383; 24 h post inoculation, vs untreated): 3 logs
additional reduction of S. aureus in peritoneal cavity and spleen (S. aureus NRS383; 48 h post infection, after a second dose): 3 log
mortality by day 2 at high inoculum (S. aureus NRS383; inoculum 2×10^7 CFU): could not be reversed
survival by day 2 post-inoculation (S. aureus NRS383; inoculum 4×10^6 CFU, control 40): 85%
survival by day 2 post-inoculation (S. aureus NRS383; inoculum 5×10^6 CFU, control 25): 55%
survival through day 10 (S. aureus NRS383; intermediate and lowest inocula, continued dosing, control 20% survival): sustained survival
survival rate raised by (S. aureus NRS383; one treatment, depending on infectious dose): at least 50%
Ki (EP1): 17 µM
effect of exogenous thymidine on growth inhibition (S. aureus strain NRS383): did not reverse; also recorded: no effect
toxic effects [1]: no apparent toxic effects
